This is an account of results in patent US10399932B2, “Inhibitors of indoleamine-2,3-dioxygenase for the treatment of cancer” (BRISTOL-MYERS SQUIBB COMPANY, priority 2015, dated 2019).

A value given as a limit tells only on which side of the number the result lay.

For this test, the target named is human IDO1 (Homo sapiens, UniProt P14902). The experiment in a line: Assessment of human IDO-1 inhibitory activity in HEK cells (human IDO1/HEK293 cells, Ehrlich reagent, absorbance at 490 nm). As to conditions: In Vitro Potency in the HEK Human IDO-1 Cellular Assay. It counts as cell-based. Also noted: expressed in transfected cells. Here is the method: Exemplary compounds were tested for inhibition of IDO activity.
Chain of human IDO1 (P14902 whole entry): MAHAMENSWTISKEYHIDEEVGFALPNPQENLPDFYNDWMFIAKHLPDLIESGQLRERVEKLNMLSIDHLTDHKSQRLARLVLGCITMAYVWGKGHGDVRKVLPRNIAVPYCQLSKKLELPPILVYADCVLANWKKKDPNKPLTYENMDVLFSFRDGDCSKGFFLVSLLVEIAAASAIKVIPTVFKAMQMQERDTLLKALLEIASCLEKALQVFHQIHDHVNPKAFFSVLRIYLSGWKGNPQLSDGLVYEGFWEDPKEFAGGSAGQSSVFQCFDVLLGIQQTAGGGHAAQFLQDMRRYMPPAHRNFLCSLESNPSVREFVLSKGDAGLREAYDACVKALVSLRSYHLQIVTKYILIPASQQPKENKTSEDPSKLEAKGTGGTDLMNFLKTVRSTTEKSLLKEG
HEK293 cells were transfected with a pCDNA-based mammalian expression vector harboring human IDO1 cDNA (NM 002164.2) by electroporation. They were cultured in medium (DMEM with 10% FBS) containing 1 mg/ml G418 for two weeks. Clones of HEK293 cells that stably expressed human IDO1 protein were selected and expanded for IDO inhibition assay.
The human IDO1/HEK293 cells were seeded at 10,000 cells per 50 μL per well with RPMI/phenol red free media contains 10% FBS in a 384-well black wall clear bottom tissue culture plate (Matrix Technologies LLC) 100 nL of certain concentration of compound was then added to each well using ECHO liquid handling systems. The cells were incubated for 20 hours in 37° C. incubator with 5% CO2.
The compound treatments were stopped by adding trichloroacetic acid (Sigma-Aldrich) to a final concentration at 0.2%. The cell plate was further incubated at 50° C. for 30 minute. The equal volume supernatant (20 μL) and 0.2% (w/v) Ehrlich reagent (4-dimethylaminobenzaldehyde, Sigma-Aldrich) in glacial acetic acid were mixed in a new clear bottom 384-well plate. This plate was then incubated at room temperature for 30 minute. The absorbance at 490 nm was measured on Envision plate reader.
Compound IC50 values were calculated using the counts of 500 nM of a reference standard treatment as one hundred percent inhibition, and counts of no compound but DMSO treatment as zero percent inhibition.
As usually defined, the IC50 is the point on the concentration scale where inhibition reaches its midpoint. High values mean a need for much substance, low ones inhibition by little substance. As to `CCC(CC(=O)O)c1ccc(N(CC(C)C)C2CCCCC2)c(Nc2ccc(F)c(F)c2)c1` (single isomer, unassigned) [Example 306, 3-(4-(cyclohexyl(isobutyl)amino)-3-((3,4-difluorophenyl)amino)phenyl)pentanoic acid], the IC50 is < 5 nM.
For `CCC(CC(=O)O)c1ccc(N(CC(C)C)C2CCCCC2)c(Nc2ccc3c(c2)OCCO3)c1` (single isomer, unassigned) [Example 317, 3-(4-(cyclohexyl(isobutyl)amino)-3-((2,3-dihydrobenzo[b][1,4]dioxin-6-yl)amino)phenyl)pentanoic acid] the value was < 50 nM; for `CCN(c1ccc([C@@H](COC)CC(=O)O)cc1Nc1ccc2c(c1)OC(F)(F)O2)C1CCOCC1` (single isomer, unassigned) [Example 378], < 50 nM; for `CCOc1ccc(NC(=O)Nc2cc([C@@H](CC)CC(=O)O)ccc2N(CC)C2CCOCC2)cc1` (single isomer, unassigned) [Example 491], < 50 nM.
Turning to `CCOc1ccc(Nc2cc([C@H](CC)CC(=O)O)ccc2N(CC)C2CCOCC2)cc1` (single isomer, unassigned) [Example 514], the IC50 is < 5 nM.
Turning to `CCN(c1ccc(C(CC(=O)O)c2ccccc2)cc1Nc1ccc(Cl)cc1F)C1CCOCC1` (single isomer, unassigned) [Example 582, 3-(3-((4-chloro-2-fluorophenyl)amino)-4-(ethyl(tetrahydro-2H-pyran-4-yl)amino)phenyl)-3-phenylpropanoic acid], the IC50 was < 50 nM.
With `CCN(c1ccc(C(CC(=O)O)c2ccccc2)cc1Nc1ccc2nc(C)sc2c1)C1CCOCC1` (single isomer, unassigned) [Example 589, 3-(4-(ethyl(tetrahydro-2H-pyran-4-yl)amino)-3-((2-methylbenzo[d]thiazol-6-yl)amino)phenyl)-3-phenylpropanoic acid], the IC50 was > 50 nM.
As to `CCN(c1ccc(C(CC(=O)O)c2ccccc2)cc1Nc1ccc(C#N)cc1)C1CCOCC1` (single isomer, unassigned) [Example 591, 3-(3-((4-cyanophenyl)amino)-4-(ethyl(tetrahydro-2H-pyran-4-yl)amino)phenyl)-3-phenylpropanoic acid], the IC50 was < 5 nM.
As to `CCN(c1ccc(C(CC(=O)O)c2ccccc2)cc1Nc1ccc(OC(F)F)cc1)C1CCOCC1` (single isomer, unassigned) [Example 593, 3-(3-((4-(difluoromethoxy)phenyl)amino)-4-(ethyl(tetrahydro-2H-pyran-4-yl)amino)phenyl)-3-phenylpropanoic acid], the half-inhibitory concentration (IC50) is < 50 nM.
Take `CCN(c1ccc(C(CC(=O)O)c2ccccc2)cc1NC(=O)Nc1ccc(OC)cc1F)C1CCOCC1` (single isomer, unassigned) [Example 596, 3-(4-(ethyl(tetrahydro-2H-pyran-4-yl)amino)-3-(3-(2-fluoro-4-methoxyphenyl)ureido)phenyl)-3-phenylpropanoic acid]: the IC50 was > 50 nM.
For `CCOc1cc(Nc2cc(C(CC)CC(=O)O)ccc2N(CC(C)C)C2CCCCC2)ccc1Cl` (single isomer, unassigned) [Example 646, 3-(3-((4-chloro-3-ethoxyphenyl)amino)-4-(cyclohexyl(isobutyl)amino)phenyl)pentanoic acid], the IC50 is < 5 nM.
For `CCC(CC(=O)O)c1ccc(N(CC(C)C)C2CCCCC2)c(Nc2ccc(Cl)c(OCC(F)F)c2)c1` (single isomer, unassigned) [Example 650, 3-(3-((4-chloro-3-(2,2-difluoroethoxy)phenyl)amino)-4-(cyclohexyl(isobutyl)amino)phenyl)pentanoic acid] the value was < 5 nM; for `CCC(CC(=O)O)c1ccc(N(CC(C)C)C2CCCCC2)c(Nc2ccc(Cl)c(OCC(F)(F)F)c2)c1` (single isomer, unassigned) [Example 651, 3-(3-((4-chloro-3-(2,2,2-trifluoroethoxy)phenyl)amino)-4-(cyclohexyl(isobutyl)amino)phenyl)pentanoic acid], < 50 nM.
Consider `CCC(CC(=O)O)c1ccc(N(CC(C)C)C2CCCCC2)c(Nc2ccc(Cl)c(OCC3CC3)c2)c1` (single isomer, unassigned) [Example 652, 3-(3-((4-chloro-3-(cyclopropylmethoxy)phenyl)amino)-4-(cyclohexyl(isobutyl)amino)phenyl)pentanoic acid], for which the half-inhibitory concentration (IC50) is < 50 nM.
On to `CCOc1cc(Nc2cc(C(CC)CC(=O)O)ccc2N(CC(C)C)C2CCCCC2)ccc1Cl` (single isomer, unassigned) [Example 653, 3-(3-((4-chloro-3-ethoxyphenyl)amino)-4-(cyclohexyl(isobutyl)amino)phenyl)pentanoic acid], for which the IC50 was < 50 nM.
In the case of `CCC(CC(=O)O)c1ccc(N(CC(C)C)C2CCCCC2)c(Nc2cnc(OC(C)C)nc2)c1` (single isomer, unassigned) [Example 655, 3-(4-(cyclohexyl(isobutyl)amino)-3-((2-isopropoxypyrimidin-5-yl)amino)phenyl)pentanoic acid] it was < 5 nM; in that of `COCC(CC(=O)O)c1ccc(N(CC2CC2)C2CCOCC2)c(NC(=O)Nc2ccc(C)cc2)c1` (single isomer, unassigned) [Example 677, 3-(4-((Cyclopropylmethyl)(tetrahydro-2H-pyran-4-yl)amino)-3-(3-(p-tolyl)ureido)phenyl)-4-methoxybutanoic acid], > 50 nM.
`CCC(CC(=O)O)c1ccc(N(CC2CC2)C2CCOCC2)c(NC(=O)Nc2ccc(Cl)cc2F)c1` (single isomer, unassigned) [Example 699, 3-(3-(3-(4-Chloro-2-fluorophenyl)ureido)-4-((cyclopropylmethyl)(tetrahydro-2H-pyran-4-yl)amino)phenyl)pentanoic acid]: the IC50 is < 5 nM.
For `CCC(CC(=O)O)c1ccc(N(CC2CC2)C2CCOCC2)c(NC(=O)Nc2cc(C)on2)c1` (single isomer, unassigned) [Example 700, 3-(4-((Cyclopropylmethyl)(tetrahydro-2H-pyran-4-yl)amino)-3-(3-(5-methylisoxazol-3-yl)ureido)phenyl)pentanoic acid], the IC50 was > 50 nM.
For the compound `CCC(CC(=O)O)c1ccc(N(CC2CC2)C2CCOCC2)c(Nc2ccc3nc(C)sc3c2)c1` (single isomer, unassigned) [Example 707, 3-(4-((Cyclopropylmethyl)(tetrahydro-2H-pyran-4-yl)amino)-3-((2-methylbenzo[d]thiazol-6-yl)amino)phenyl)pentanoic acid], the IC50 is < 50 nM.
In the case of `CCC(CC(=O)O)c1ccc(N(CC2CC2)C2CCOCC2)c(Nc2ccc(Cl)cc2)c1` (single isomer, unassigned) [Example 708, 3-(3-((4-chlorophenyl)amino)-4-((cyclopropylmethyl)(tetrahydro-2H-pyran-4-yl)amino)phenyl)pentanoic acid] it was < 5 nM.
As to `CCC(CC(=O)O)c1ccc(N(CC2CC2)C2CCOCC2)c(Nc2cnc(OC)nc2)c1` (single isomer, unassigned) [Example 709, 3-(4-((cyclopropylmethyl)(tetrahydro-2H-pyran-4-yl)amino)-3-((2-methoxypyrimidin-5-yl)amino)phenyl)pentanoic acid], the IC50 was < 5 nM.
In the case of `CCC(CC(=O)O)c1ccc(N(CC2CC2)C2CCOCC2)c(Nc2ccc3c(c2)OC(F)(F)O3)c1` (single isomer, unassigned) [Example 710, 3-(4-((cyclopropylmethyl)(tetrahydro-2H-pyran-4-yl)amino)-3-((2,2-difluorobenzo[d][1,3]dioxol-5-yl)amino)phenyl)pentanoic acid], the IC50 was < 5 nM.
Take `CCOc1ncc(Nc2cc(C(CC)CC(=O)O)ccc2N(CC2CC2)C2CCOCC2)cn1` (single isomer, unassigned) [Example 711, 3-(4-((cyclopropylmethyl)(tetrahydro-2H-pyran-4-yl)amino)-3-((2-ethoxypyrimidin-5-yl)amino)phenyl)pentanoic acid]: the IC50 is < 5 nM.
Regarding `CCC(CC(=O)O)c1ccc(N(CC2CC2)C2CCOCC2)c(Nc2ccc(C#N)cc2)c1` (single isomer, unassigned) [Example 712, 3-(3-((4-cyanophenyl)amino)-4-((cyclopropylmethyl)(tetrahydro-2H-pyran-4-yl)amino)phenyl)pentanoic acid], the half-inhibitory concentration (IC50) was < 5 nM.
Regarding `CCC(CC(=O)O)c1ccc(N(CC2CC2)C(C)C)c(Nc2ccc(Cl)cc2)c1` (single isomer, unassigned) [Example 717, 3-(3-((4-chlorophenyl)amino)-4-((cyclopropylmethyl)(isopropyl)amino)phenyl)pentanoic acid], the IC50 was < 5 nM.
For `CCC(CC(=O)O)c1ccc(N(CC(C)C)C(C)C)c(Nc2ccc(Cl)cc2)c1` (single isomer, unassigned) [Example 728, 3-(3-((4-Chlorophenyl)amino)-4-(isobutyl(isopropyl)amino)phenyl)pentanoic acid] the value was < 5 nM; for `CC(CC(=O)O)c1ccc(N2C[C@@H](C)O[C@@H](C)C2)c(Nc2ccc(C#N)cc2)c1` (single isomer, unassigned) [Example 743], > 50 nM; for `CC(CC(=O)O)c1ccc(N2C[C@@H](C)O[C@@H](C)C2)c(Nc2ccc(F)cc2)c1` (single isomer, unassigned) [Example 744], > 50 nM.
